A word on the melting point: it is the temperature, or range, at which the solid turns liquid.

The values that follow come from patent publication US7468366B2, “Cytotoxic agents” (Rutgers, The State University of New Jersey, priority 2001, dated 2008).

SMILES strings stand for the structures.

For `COc1cc2c(cc1OC)-c1cnc3cc4c(cc3c1OC2)OCO4` [Example 12, 8,9-Dimethoxy-2,3-methylenedioxy-6H-5-oxa-12-aza-chrysene], the melting point was 239 to 242 °C (dec.). As for `CCCCn1c(=O)c2cc(OC)c(OC)cc2c2cnc3cc4c(cc3c21)OCO4` [Example 11, 8,9-Dimethoxy-2,3-methylenedioxy-5-(butyl)-5H-dibenzo[c,h]1,6-naphthyridin-6-one], the figure is 224 °C (dec.); as for `CCCCn1c(=O)c2cc(OC)c(OC)cc2c2nnc3cc4c(cc3c21)OCO4` [Example 10, 2,3-Dimethoxy-8,9-methylenedioxy-11-(n-butyl)-11H-5,6,11-triazachrysen-12-one], 299 °C.
